This is an account of results in patent US20130190407A1, “CALCIUM RECEPTOR-ACTIVE MOLECULES” (NPS Pharmaceuticals, Inc., priority 1991, published 2013).

What all share (format): cell-based
The target of test [1] is T1, HuPCaR 5.2 (Homo sapiens, UniProt P41180, E1011Q/Q926R).
T1 construct: appear to be full-length clones corresponding to the 5 Kb mRNA; expressed in transfected cells; host or cells: HEK293 cells, hygromycin-selected pool, Cep4B vector with the HuPCaR 5.2 insert
T1 sequence (P41180 20-1088 isoform P41180-2 Q936R/E1021Q): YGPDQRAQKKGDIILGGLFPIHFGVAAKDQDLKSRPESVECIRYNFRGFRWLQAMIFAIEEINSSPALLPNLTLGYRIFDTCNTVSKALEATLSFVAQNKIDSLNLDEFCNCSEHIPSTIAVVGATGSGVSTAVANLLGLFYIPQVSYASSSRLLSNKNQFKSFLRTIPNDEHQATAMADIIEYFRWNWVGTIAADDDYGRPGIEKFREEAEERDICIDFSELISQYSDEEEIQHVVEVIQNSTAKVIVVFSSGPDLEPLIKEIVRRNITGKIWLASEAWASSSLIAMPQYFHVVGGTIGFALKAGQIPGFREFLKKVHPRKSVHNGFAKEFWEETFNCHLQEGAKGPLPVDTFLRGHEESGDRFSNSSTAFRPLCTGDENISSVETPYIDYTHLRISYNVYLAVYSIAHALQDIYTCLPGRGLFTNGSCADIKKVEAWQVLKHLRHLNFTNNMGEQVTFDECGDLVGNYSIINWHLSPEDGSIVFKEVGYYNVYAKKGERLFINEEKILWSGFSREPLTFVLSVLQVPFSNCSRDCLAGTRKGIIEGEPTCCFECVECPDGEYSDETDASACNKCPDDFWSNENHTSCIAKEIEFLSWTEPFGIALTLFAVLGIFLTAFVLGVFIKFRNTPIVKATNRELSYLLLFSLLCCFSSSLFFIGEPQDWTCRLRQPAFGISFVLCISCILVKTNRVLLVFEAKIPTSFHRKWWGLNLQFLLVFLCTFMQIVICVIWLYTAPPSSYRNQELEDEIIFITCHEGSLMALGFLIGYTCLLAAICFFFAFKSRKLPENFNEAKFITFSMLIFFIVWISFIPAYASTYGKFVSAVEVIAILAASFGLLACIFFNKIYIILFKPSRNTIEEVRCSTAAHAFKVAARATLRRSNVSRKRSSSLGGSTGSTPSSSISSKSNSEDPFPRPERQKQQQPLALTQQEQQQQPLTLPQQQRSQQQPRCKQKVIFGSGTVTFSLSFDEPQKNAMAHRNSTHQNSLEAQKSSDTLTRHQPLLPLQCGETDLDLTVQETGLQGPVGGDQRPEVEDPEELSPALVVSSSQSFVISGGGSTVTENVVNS
In words: [Ca2+]i (fura-2) in HEK293 cells transfected with HuPCaR 5.2. How it is done:
Cells obtained from the pool of hygromycin selected HEK293 cells transfected with Cep4B containing the HuPCaR 5.2 insert were plated on collagen coated Aklar squares which had been placed into individual wells of 12-well tissue culture plates. Two to six days later, medium was removed and the cells washed with balanced salt solution and 1 ml of buffer containing 1 μM fura2-AM, 1 mM CaCl2 and 0.1% BSA and 1 mM CaCl2. Measurements of fluorescence in response to calcium receptor agonists were performed at 37° C. in a spectrofluorimeter using excitation and emission wavelengths of 340 and 510 nm, respectively. For signal calibration, Fmax was determined after addition of ionomycin (40 μM) and the apparent Fmin was determined by addition of 0.3 M EGTA, 2.5 M Tris-HCl; pH 10.

For test [2], the target named is T2, human parathyroid cell calcium receptor (Homo sapiens, UniProt P41180, E1011Q/Q926R).
T2 construct: appear to be full-length clones corresponding to the 5 Kb mRNA; expressed in transfected cells; host or cells: Xenopus laevis oocytes injected with pHuPCaR 5.2
T2 sequence (P41180 20-1088 isoform P41180-2 Q936R/E1021Q): T1 sequence (P41180 20-1088 isoform P41180-2 Q936R/E1021Q)
In words: Cl- current in Xenopus oocytes injected with pHuPCaR 5.2. The settings on record: 3 to 30 μM; 0.3 mM extracellular Ca2+. How it is done: Xenopus oocytes were injected with pHuPCaR 5.2, the 5.2 Kb cDNA encoding a parathyroid cell calcium receptor derived from a human parathyroid cell adenoma. (See Example 27.) After two to three days, Cl^− currents were measured in the oocytes using a two-electrode voltage clamp.

In test [3] the test system is Bovine parathyroid cells. Briefly: PTH secretion from bovine parathyroid cells. The settings on record: concentrations that mobilize intracellular Ca2+. The method, then:
(§1) PTH secretion was measured by first suspending cells in PCB containing 0.5 mM CaCl2 and 0.1% BSA.
Counting of samples and data reduction were performed on a Packard Cobra 5005 gamma counter.

For test [4], the system named is human parathyroid cells. In words: PTH secretion from human parathyroid cells. The note with it: concentrations that mobilize intracellular Ca2+. How it is done:
as §1
For human cells, a commercially available radioimmunoassay kit (INS-PTH; Nichols Institute, Los Angeles, Calif.) which recognizes intact and N-terminal human PTH was used because GW-1 antibody recognizes human PTH poorly.

Turning to `COc1cccc([C@@H](C)NCCCc2ccccc2)c1` (single isomer, unassigned) [NPS R-467], the intracellular calcium entry in test [1] was “Robust increases in intracellular calcium”.

Take `COc1cccc([C@@H](C)NCCCc2ccccc2Cl)c1` [NPS R-568, (R)-(+)-N-[3-(2-chlorophenyl)propyl]-α-methyl-3-methoxybenzylamine]: the Cl- current entry in test [2] is given as “evoked increases in the Cl^− current”.

Regarding `NC[C@@H]1O[C@H](O[C@H]2[C@@H](O)[C@H](O[C@@H]3[C@@H](O)[C@H](N)C[C@H](N)[C@H]3O[C@H]3O[C@H](CN)[C@@H](O)[C@H](O)[C@H]3N)O[C@@H]2CO)[C@H](N)[C@@H](O)[C@@H]1O` [Neomycin B, neomycin B], the PTH secretion entry in test [3] is given as “inhibited PTH secretion to the same extent as extracellular Ca^2+”; in test [4], “inhibited PTH secretion”.
